The record followed here is paper PMC12596731, “Cys–Lys stapling for unprotected peptides via tunable linkers” (National Science Review, 2025).

This data set in a line: Cys-Lys stapling of unprotected peptides with unsymmetrical linker (1.5 equiv): Cys thiol displaces phthalimide from N-thiophthalimide (disulfide, ~1 min), then ring closure by Lys amine attack on pentafluorophenyl ester with DIPEA (4 equiv). The conditions noted are these: the molecule shown is the open-chain precursor, CH3CN:H2O 3:1, 25.0 °C, 0.167 h.

`CC(=O)N[C@@H](CCC(N)=O)C(=O)N[C@@H](CO)C(=O)N[C@@H](CCC(N)=O)C(=O)N[C@@H](CCC(N)=O)C(=O)N[C@H](C(=O)N[C@@H](Cc1ccccc1)C(=O)N[C@@H](CSS/C(=C/Cl)CCOc1cccc(C(=O)Oc2c(F)c(F)c(F)c(F)c2F)c1)C(=O)N[C@@H](CC(N)=O)C(=O)N[C@@H](CC(C)C)C(=O)N[C@@H](Cc1c[nH]c2ccccc12)C(=O)N[C@@H](CCCNC(=N)N)C(=O)N[C@@H](CC(C)C)C(=O)N[C@@H](CC(C)C)C(=O)N[C@@H](CCCCN)C(=O)N[C@@H](CCC(N)=O)C(=O)N[C@@H](CC(N)=O)C(N)=O)[C@@H](C)O`: the ring closure, isolated yield (38-membered ring) was found to be 85%.

Take `CC[C@H](C)[C@H](NC(=O)[C@@H]1CCCN1C(=O)[C@H](CSS/C(=C/Cl)CCOc1ccc(C(=O)Oc2c(F)c(F)c(F)c(F)c2F)cc1)NC(C)=O)C(=O)N[C@@H](CCSC)C(=O)N[C@@H](CCC(=O)O)C(=O)N[C@@H](CC(=O)O)C(=O)N[C@@H](CCCNC(=N)N)C(=O)N[C@@H](CCCCN)C(=O)N1CCC[C@H]1C(N)=O` [Ac-Cys(S-linker 3m-OPfp)-Pro-Ile-Met-Glu-Asp-Arg-Lys-Pro-NH2]: the ring closure, isolated yield (39-membered ring) amounted to 62%.

With `CC[C@H](C)[C@H](NC(=O)[C@@H]1CCCN1C(=O)[C@H](CSS/C(=C/Cl)CCOc1cccc(C(=O)Oc2c(F)c(F)c(F)c(F)c2F)c1)NC(C)=O)C(=O)N[C@@H](CCSC)C(=O)N[C@@H](CCC(=O)O)C(=O)N[C@@H](CC(=O)O)C(=O)N[C@@H](CCCNC(=N)N)C(=O)N[C@@H](CCCCN)C(=O)N1CCC[C@H]1C(N)=O` [Ac-Cys(S-linker 3k-OPfp)-Pro-Ile-Met-Glu-Asp-Arg-Lys-Pro-NH2], for the setting “38-membered ring”, the ring closure, isolated yield stood at 72%.

Consider `CC(=O)N[C@@H](CCCCN)C(=O)N[C@@H](C)C(=O)N[C@@H](C)C(=O)N[C@@H](C)C(=O)N[C@@H](CSS/C(=C/Cl)CCCC(=O)Oc1c(F)c(F)c(F)c(F)c1F)C(=O)N[C@@H](Cc1ccccc1)C(N)=O` [Ac-Lys-Ala-Ala-Ala-Cys(S-linker 3b-OPfp)-Phe-NH2], for which the ring closure, isolated yield (26-membered ring) was found to be 76%.

For the compound `CC(=O)N[C@H](C(=O)N[C@@H](CO)C(=O)N[C@@H](Cc1ccccc1)C(=O)N[C@@H](CCCCN)C(=O)N[C@@H](CCC(N)=O)C(=O)N[C@@H](Cc1ccc(O)cc1)C(=O)N[C@@H](Cc1c[nH]c2ccccc12)C(=O)N[C@@H](CSS/C(=C/Cl)CCC(=O)Oc1c(F)c(F)c(F)c(F)c1F)C(=O)N[C@@H](CC(C)C)C(=O)N[C@@H](CC(C)C)C(=O)N[C@@H](CO)C(=O)N[C@@H](CCCNC(=N)N)C(N)=O)[C@@H](C)O`, the ring closure, isolated yield (25-membered ring) came to 69%.

Take `CC(=O)N[C@@H](CCC(N)=O)C(=O)N[C@@H](CO)C(=O)N[C@@H](CCC(N)=O)C(=O)N[C@@H](CCC(N)=O)C(=O)N[C@H](C(=O)N[C@@H](Cc1ccccc1)C(=O)N[C@@H](CSS/C(=C/Cl)CCC(=O)Oc1c(F)c(F)c(F)c(F)c1F)C(=O)N[C@@H](CC(N)=O)C(=O)N[C@@H](CC(C)C)C(=O)N[C@@H](Cc1c[nH]c2ccccc12)C(=O)N[C@@H](CCCNC(=N)N)C(=O)N[C@@H](CC(C)C)C(=O)N[C@@H](CC(C)C)C(=O)N[C@@H](CCCCN)C(=O)N[C@@H](CCC(N)=O)C(=O)N[C@@H](CC(N)=O)C(N)=O)[C@@H](C)O`: the ring closure, isolated yield (34-membered ring) is 79%.

On to `CC(=O)N[C@@H](CCC(N)=O)C(=O)N[C@@H](CO)C(=O)N[C@@H](CCC(N)=O)C(=O)N[C@@H](CCC(N)=O)C(=O)N[C@H](C(=O)N[C@@H](Cc1ccccc1)C(=O)N[C@@H](CSS/C(=C/Cl)CCOc1ccccc1C(=O)Oc1c(F)c(F)c(F)c(F)c1F)C(=O)N[C@@H](CC(N)=O)C(=O)N[C@@H](CC(C)C)C(=O)N[C@@H](Cc1c[nH]c2ccccc12)C(=O)N[C@@H](CCCNC(=N)N)C(=O)N[C@@H](CC(C)C)C(=O)N[C@@H](CC(C)C)C(=O)N[C@@H](CCCCN)C(=O)N[C@@H](CCC(N)=O)C(=O)N[C@@H](CC(N)=O)C(N)=O)[C@@H](C)O`, for which the ring closure, isolated yield (37-membered ring) amounted to 65%.

As for `CC(=O)N[C@H](C(=O)N[C@@H](CO)C(=O)N[C@@H](Cc1ccccc1)C(=O)N[C@@H](CCCCN)C(=O)N[C@@H](CCC(N)=O)C(=O)N[C@@H](Cc1ccc(O)cc1)C(=O)N[C@@H](Cc1c[nH]c2ccccc12)C(=O)N[C@@H](CSS/C(=C/Cl)CCOc1cccc(C(=O)Oc2c(F)c(F)c(F)c(F)c2F)c1)C(=O)N[C@@H](CC(C)C)C(=O)N[C@@H](CC(C)C)C(=O)N[C@@H](CO)C(=O)N[C@@H](CCCNC(=N)N)C(N)=O)[C@@H](C)O`, under “29-membered ring”, the ring closure, isolated yield stood at 85%.

Turning to `CC[C@H](C)[C@H](NC(=O)[C@@H]1CCCN1C(=O)[C@H](CSS/C(=C/Cl)CCCC(=O)Oc1c(F)c(F)c(F)c(F)c1F)NC(C)=O)C(=O)N[C@@H](CCSC)C(=O)N[C@@H](CCC(=O)O)C(=O)N[C@@H](CC(=O)O)C(=O)N[C@@H](CCCNC(=N)N)C(=O)N[C@@H](CCCCN)C(=O)N1CCC[C@H]1C(N)=O` [Ac-Cys(S-linker 3b-OPfp)-Pro-Ile-Met-Glu-Asp-Arg-Lys-Pro-NH2], the ring closure, isolated yield (35-membered ring) was 81%.

As to `CC(=O)N[C@@H](CCC(N)=O)C(=O)N[C@@H](CO)C(=O)N[C@@H](CCC(N)=O)C(=O)N[C@@H](CCC(N)=O)C(=O)N[C@H](C(=O)N[C@@H](Cc1ccccc1)C(=O)N[C@@H](CSS/C(=C/Cl)CCCCCC(=O)Oc1c(F)c(F)c(F)c(F)c1F)C(=O)N[C@@H](CC(N)=O)C(=O)N[C@@H](CC(C)C)C(=O)N[C@@H](Cc1c[nH]c2ccccc12)C(=O)N[C@@H](CCCNC(=N)N)C(=O)N[C@@H](CC(C)C)C(=O)N[C@@H](CC(C)C)C(=O)N[C@@H](CCCCN)C(=O)N[C@@H](CCC(N)=O)C(=O)N[C@@H](CC(N)=O)C(N)=O)[C@@H](C)O`, the ring closure, isolated yield (37-membered ring) amounted to 78%.

`CC[C@H](C)[C@H](NC(=O)[C@@H]1CCCN1C(=O)[C@H](CSS/C(=C/Cl)CCOc1ccccc1C(=O)Oc1c(F)c(F)c(F)c(F)c1F)NC(C)=O)C(=O)N[C@@H](CCSC)C(=O)N[C@@H](CCC(=O)O)C(=O)N[C@@H](CC(=O)O)C(=O)N[C@@H](CCCNC(=N)N)C(=O)N[C@@H](CCCCN)C(=O)N1CCC[C@H]1C(N)=O` [Ac-Cys(S-linker 3i-OPfp)-Pro-Ile-Met-Glu-Asp-Arg-Lys-Pro-NH2]: for the setting “37-membered ring”, the ring closure, isolated yield was 65%.

Consider `CC(=O)N[C@H](C(=O)N[C@@H](CO)C(=O)N[C@@H](Cc1ccccc1)C(=O)N[C@@H](CCCCN)C(=O)N[C@@H](CCC(N)=O)C(=O)N[C@@H](Cc1ccc(O)cc1)C(=O)N[C@@H](Cc1c[nH]c2ccccc12)C(=O)N[C@@H](CSS/C(=C/Cl)COCC(=O)Oc1c(F)c(F)c(F)c(F)c1F)C(=O)N[C@@H](CC(C)C)C(=O)N[C@@H](CC(C)C)C(=O)N[C@@H](CO)C(=O)N[C@@H](CCCNC(=N)N)C(N)=O)[C@@H](C)O`, for which the ring closure, isolated yield (26-membered ring) stood at 78%.

As to `CC(=O)N[C@@H](CCCCN)C(=O)N[C@@H](C)C(=O)N[C@@H](C)C(=O)N[C@@H](C)C(=O)N[C@@H](CSS/C(=C/Cl)CCCCC(=O)Oc1c(F)c(F)c(F)c(F)c1F)C(=O)N[C@@H](Cc1ccccc1)C(N)=O` [Ac-Lys-Ala-Ala-Ala-Cys(S-linker 3c-OPfp)-Phe-NH2], where the note is “27-membered ring”, the ring closure, isolated yield stood at 79%.

In the case of `CC(=O)N[C@H](C(=O)N[C@@H](CO)C(=O)N[C@@H](Cc1ccccc1)C(=O)N[C@@H](CCCCN)C(=O)N[C@@H](CCC(N)=O)C(=O)N[C@@H](Cc1ccc(O)cc1)C(=O)N[C@@H](Cc1c[nH]c2ccccc12)C(=O)N[C@@H](CSS/C(=C/Cl)CCOc1ccccc1C(=O)Oc1c(F)c(F)c(F)c(F)c1F)C(=O)N[C@@H](CC(C)C)C(=O)N[C@@H](CC(C)C)C(=O)N[C@@H](CO)C(=O)N[C@@H](CCCNC(=N)N)C(N)=O)[C@@H](C)O`, the ring closure, isolated yield (28-membered ring) is 82%.

Turning to `C[C@H](NC(=O)[C@H](C)NC(=O)[C@@H](N)CCCCN)C(=O)N[C@@H](C)C(=O)N[C@@H](CSS/C(=C/Cl)CCC(=O)Oc1c(F)c(F)c(F)c(F)c1F)C(=O)N[C@@H](Cc1ccccc1)C(N)=O` [H-Lys-Ala-Ala-Ala-Cys(S-linker 3a-OPfp)-Phe-NH2], where the note is “25-membered ring”, the ring closure, isolated yield is 68%.

On to `CC(=O)N[C@H](C(=O)N[C@@H](CO)C(=O)N[C@@H](Cc1ccccc1)C(=O)N[C@@H](CCCCN)C(=O)N[C@@H](CCC(N)=O)C(=O)N[C@@H](Cc1ccc(O)cc1)C(=O)N[C@@H](Cc1c[nH]c2ccccc12)C(=O)N[C@@H](CSS/C(=C/Cl)CCCCCCCCC(=O)Oc1c(F)c(F)c(F)c(F)c1F)C(=O)N[C@@H](CC(C)C)C(=O)N[C@@H](CC(C)C)C(=O)N[C@@H](CO)C(=O)N[C@@H](CCCNC(=N)N)C(N)=O)[C@@H](C)O`, for which the ring closure, isolated yield (31-membered ring) was 68%.

`CC(=O)N[C@H](C(=O)N[C@@H](CO)C(=O)N[C@@H](Cc1ccccc1)C(=O)N[C@@H](CCCCN)C(=O)N[C@@H](CCC(N)=O)C(=O)N[C@@H](Cc1ccc(O)cc1)C(=O)N[C@@H](Cc1c[nH]c2ccccc12)C(=O)N[C@@H](CSS/C(=C/Cl)c1cccc(C(=O)Oc2c(F)c(F)c(F)c(F)c2F)c1)C(=O)N[C@@H](CC(C)C)C(=O)N[C@@H](CC(C)C)C(=O)N[C@@H](CO)C(=O)N[C@@H](CCCNC(=N)N)C(N)=O)[C@@H](C)O`: for the setting “26-membered ring”, the ring closure, isolated yield turned out to be 84%.

`CC(=O)N[C@@H](CCCCN)C(=O)N[C@@H](C)C(=O)N[C@@H](C)C(=O)N[C@@H](C)C(=O)N[C@@H](CSS/C(=C/Cl)c1cccc(C(=O)Oc2c(F)c(F)c(F)c(F)c2F)c1)C(=O)N[C@@H](Cc1ccccc1)C(N)=O` [Ac-Lys-Ala-Ala-Ala-Cys(S-linker 3j-OPfp)-Phe-NH2]: the ring closure, isolated yield (26-membered ring) was 72%.
